# Results reported in patent US5221606A, “Reagent and kit for enzyme assay comprising a substrate consonant with given enzyme to be assayed” (King's College London, priority 1987, dated 1993).
# Key:
# [1] = system: N-acetyl-β-D-glucosaminidase (NAGase); assay: substrate test with N-acetyl-β-D-glucosaminidase; assay type: biochemical
# Experimental: METHOD. The MIXTURE A is dissolved in 10 ml of distilled water to give SOLUTION A. The solution should be allowed to stand in a thermostatically controlled bath at 37° C., and then 0.75 ml of the solution is added to a series of suitable tubes of 2 ml capacity. To these tubes is added, with vigorous stirring, […] aliquots of the urines under examination, and a blank is prepared by adding 0.05 ml of distilled water rather than urine to one of the tubes. The tubes are then incubate for a set length of time (preferably 30 min), after which 0.25 ml of the STOPPING BUFFER is added to each tube and the absorption (A) at 505 nm is determined for each sample, and adjusted for the value of the blank.
# The enzyme activity of the enzyme in each sample is given by the expression using and εmax =42,000. [formula] where t=time of incubation in hours
# [2] = solubility in water or aqueous buffer
# stability on storage = assay type: physicochemical
# carboxyesterase = assay: substrate test with carboxyesterase; assay type: biochemical
# Experimental: The serum samples were diluted by a factor of 10 prior to the assay. The substrate solution and the diluted sera were then preincubated at 37° C. in a water bath. Aliquots (0.75 ml) of the substrate solution were then pipetted into small plastic tubes (2 ml capacity), and 0.05 ml samples of the sera were added to each of the substrate aliquots and shaken vigorously to ensure adequate mixing. A blank was run by substituting water (0.05 ml) for the serum. The reaction was stopped after 10 min by the addition of the stopping buffer (0.25 ml) [prepared by dissolving DABCO (22.4 g) in water (200 ml) and adjusting the pH to 10 by the addition of a little conc. hydrochloric acid. The resulting mixture was then made up to 1000 ml with acetone]. […] [formula] where t=time of incubation in hours
# Otherwise it was carried out in exactly the same ways as above
# lipases = assay: substrate test with lipases; assay type: biochemical
# alkaline phosphatase = assay: substrate test with alkaline phosphatase; assay type: biochemical
# esterases = assay: substrate test with esterases; assay type: biochemical
smiles,measurement,setting,value
COc1cc(C=C2SC(=S)N(CC(=O)O)C2=O)ccc1O[C@@H]1O[C@H](CO)[C@@H](O)[C@H](O)[C@H]1NC(C)=O [4b],quality as substrate for NAGase,[1],excellent substrate
same,Km,[1]; substrate for NAGase,980 µM
same,solubility,[2]; water,≤ 10000 µM
COc1cc(C=C2SC(=S)N(CC(=O)O)C2=O)cc(OC)c1O[C@@H]1O[C@H](CO)[C@@H](O)[C@H](O)[C@H]1NC(C)=O [11b],quality as substrate for NAGase,[1],fair substrate
same,solubility in water,[2]; water,soluble in water
"CCCC(=O)Oc1c(OC)cc(C=C2SC(=S)N(CC(=O)O)C2=O)cc1OC [11d, n=2, 5-(Butanoyloxy-3,5-dimethoxyphenylmethylene)-2-thioxothiazolidin-4-one-3-ethanoic acid]",stability on standing,stability on storage; potassium salt compared with free acid,slowly decomposed on standing
same,quality as substrate for / cleavage by carboxyesterase,carboxyesterase,readily cleaved
same,solubility in alkaline buffers,[2]; alkaline buffers (pH 8 etc.),readily dissolved
same,solubility,"[2]; water or aqueous buffer, aqueous buffer",> 2000 µM
"CCCCCCCCCC(=O)Oc1c(OC)cc(C=C2SC(=S)N(CC(=O)O)C2=O)cc1OC [11d, n=8]",activity as substrate for lipase,lipases,good substrate
"COc1cc(/C=C/c2ccc3ccccc3[n+]2C)ccc1O[C@@H]1O[C@H](CO)[C@@H](O)[C@H](O)[C@H]1NC(C)=O [21b, 2-{2-[4-(2-Acetamido-2-deoxy-β-D-glucopyranosyloxy)-3-methoxyphenyl]-vinyl}-1-methylquinolinium iodide]",quality as substrate for NAGase,[1],substrate
"COc1cc(/C=C/c2ccc3ccccc3[n+]2C)ccc1OP(=O)(O)O [21f, 2-[2-(4-phosphoroyloxy-3-methoxyphenyl)-vinyl]-1-methylquinolinium iodide]",stability in storage,stability on storage,rather unstable in storage
same,quality as substrate for / hydrolysis by alkaline phosphatase,alkaline phosphatase,reacted rapidly
same,solubility in water,[2]; water,very soluble in water
"COc1cc(/C=C/c2cc[n+](C)c3ccccc23)ccc1O[C@@H]1O[C@H](CO)[C@@H](O)[C@H](O)[C@H]1NC(C)=O [23b, 4-{2-[4-(2-acetamido-2-deoxy-β-D-glucopyranosyloxy)-3-methoxyphenyl]-vinyl}-1-methylquinolinium iodide]",quality as substrate for NAGase,[1],fair substrate
same,solubility in water,[2]; water,good water solubility
"COc1cc(/C=C/c2cc[n+](C)c3ccccc23)cc(OC)c1OC(=O)c1ccccc1 [24e, 4-[2(4-Benzoyloxy-3,5-dimethoxyphenyl)-vinyl]-1-methylquinolinium iodide]",activity as substrate for esterases,esterases,substrate for esterases
same,solubility,[2]; water,< 250 µM
"CCC(=O)Oc1c(OC)cc(C=C2C(=O)NC(=S)NC2=O)cc1OC [28d, n=1, 4,6-dioxo-5-(4-propanoyloxy-3,5-dimethoxyphenylmethylene)-2-thioxo-1,3-diazacyclohexane]",quality as substrate for / cleavage by carboxyesterase,carboxyesterase,poor-to-moderate substrate
same,solubility in water,[2]; water,not particularly good
CCCCCCCCC(=O)Oc1c(OC)cc(C=C2SC(=S)N(c3ccc(C(=O)O)cc3)C2=O)cc1OC [Nonanoate],activity as substrate for lipase,lipases,exhibited enzymatic activity
